Consider three compounds from patent publication US20040213826A1, “Medical devices and methods for inhibiting proliferation of smooth muscle cells” (priority 2003, published 2004).

Data set [1] relates to vascular-endothelial-growth-factor-stimulated human umbilical endothelial cells. The conditions noted are these: cited from earlier work.
The next data set has as its system embryoid bodies. The conditions noted are these: cited from earlier work.
For data set [2], the system named is rat aortic smooth muscle cells (RASM cells). Put plainly: RASM cell proliferation assay (Promega CellTiter 96 AQueous One Solution). The settings on record: for inhibition of RASM cell proliferation (in words) / IC50, inhibition of SMC proliferation: RASM cells, 48 h exposure; for IC50, inhibition of SMC proliferation: light absorption. Type of data set: cell-based. Here is the method: (§1) Low-passage rat aortic smooth muscle cells (RASM cells) from primary isolates and human aortic smooth muscle cells (HASM cells) were obtained and grown according to the suppliers' instructions. RASM cells were cultured in a medium comprising DMEM+10% FBS+100 U/ml penicillin and […], which was changed every 48 h. Micro-cultures of 5000 cells of each of the RASM and HASM were established in quadruplicate, placedin flat-bottom 96-well micro-titer plates, and exposed to various concentrations of the trichostatin-A, oxamflatin, and rapamycin. Trichostatin-A and oxamflatin were dissolved in dimethyl sulfoxide (DMSO) at various concentrations, and stored at −20° C. prior to use; rapamycin was dissolved in methanol (100 nM). After 48 h following initial exposure, the cultures were pulsed with […] of a cell-proliferation assay solution (Promega CellTiter 96 AQueous One Solution, Catalog G3580), and incubated for 1 h. The cultures' light absorbance was then measured on a BioRad Benchmark micro-plate reader, which was set to the range Ab 490 nm-Ab 655 nm. Light absorbed by the blank was accounted for in the tests. All experiments were repeated at least twice. Cell viability was determined using trypan blue staining, after incubating RASM cells with 100 ng/ml of rapamycin and trichostatin-A for 48 h.
Referring to FIG. 1, micro-cultures consisting of RASM cells were plated into a 96-well dish, and exposed as follows: a number of the micro-cultures were sham exposed, a number were exposed to rapamycin (5, 10, and 50 ng/ml, respectively), and a number were exposed to trichostatin-A ([…], respectively). The RASM cells were exposed for 48 h, prior to assessing cell proliferation.
Referring to FIG. 2, micro-cultures of RASM cells were plated into a 96-well dish, and exposed as follows: a number of the micro-cultures were sham exposed, and a number were exposed to oxamflatin (5, 10, 50, 100, 200 and 500 ng/ml, respectively)., The RASM cells were exposed for 48 h before assessing cell proliferation.

The next data set concerns RASM cells. Put plainly: Cell viability by trypan blue staining. It counts as cell-based, rat. The conditions noted are these: 100 ng/ml, 48 h. Here is the method:
as §1

Data set [3] deals with IL-2 expression in Jurkat cells. The settings on record: read-out: IC50, inhibition of IL-2 expression; cited from earlier work.
Data set [4] concerns primary cultured SMCs from rat thoracic aorta. The settings on record: 1 μg/ml; cited from earlier work.
Data set [5] relates to porcine coronary arteries. The conditions noted are these: 1 mM; cited from earlier work.
For data set [6] the following is noted: cited from earlier work.

Like-named read-outs stand apart in the source and are kept apart here.

As to `O=C(CCCCCCC(=O)Nc1ccccc1)NO` [SAHA, suberoylanilide hydroxamic acid], in data set [1] (concentration not given), the “invasion of type I collagen gel and formation of capillary like structures” value was “prevent”. The “angiogenesis in embryoid bodies” value in the data set on embryoid bodies (400 nM) is recorded as “inhibit angiogenesis”.

With `CC(/C=C/C(=O)NO)=C\[C@@H](C)C(=O)c1ccc(N(C)C)cc1` [trichostatin-A], in data set [2], the “inhibition of RASM cell proliferation (in words)” value is on record as “significant inhibition of SMC proliferation” and the “IC50, inhibition of SMC proliferation” value is approximately 0.02 µg/mL. In addition, in data set [2] (equal concentrations of 50 ng/ml, 48 h), the “inhibition of RASM cell proliferation compared with rapamycin” value is “greater than that exhibited by rapamycin”. The “cell viability, trypan blue exclusion, versus control cells” value in the data set on RASM cells is given as “no significant difference”. Moreover, in data set [3], the IC50 – broadly, the point on the concentration scale where inhibition reaches its midpoint – is 73 nM. In addition, in data set [1] (400 nM), the “invasion of type I collagen gel and formation of capillary like structures” value is “prevent”. In addition, the “angiogenesis in embryoid bodies” value in the data set with embryoid bodies (10 nM) is given as “inhibit angiogenesis”. Further, the “PDGF-induced competence of primary cultured SMCs” value in data set [4] is listed as “inhibited”. Besides, the “NO-dependent relaxation of porcine coronary arteries” value in data set [5] is “attenuated”. Further, in data set [6], the solubility result is “soluble in DMSO and ethanol”.

As for oxamflatin, in data set [2], the “inhibition of RASM cell proliferation (in words)” value is “inhibited RASM cell proliferation” and the “IC50, inhibition of SMC proliferation” value was approximately 0.075 µg/mL.
